The values below come from patent US8163513B2, “Method for determining the total clotting activity of a blood or plasma sample” (JenAffin GmbH, priority 2005, dated 2012).

For the series, the system named is thrombin. The experiment in a line: THROGA (thrombin generation assay): maximal thrombin generation in citrate blood or plasma of treated patients. Format: in vivo, human. Here is the method: For maximal generation of thrombin, a small amount of anti-coagulant blood or plasma is used. For this, citrate, but also every other anti-coagulant may be used. 0.1 ml citrate blood or citrate plasma each are put into a reference tube (NaCl) and an activator tube (tissue factor+mixture of ellagic acid and phospholipids) in which a defined amount of hirudin is present. After closing the reaction vessels, the two containers are mixed in a mini shaker at 550 rpm at room temperature for 25 minutes. The activation of coagulation is subsequently terminated with a stop solution containing EDTA and the remaining not-consumed free hirudin is determined with a precise detection method. For the exact measurement of the hirudin content in the reaction vessels, a commercial available chromogenic hirudin determination method via chromogenic substrate (ECA, Ecarin Chromogenic Assay, WO 0046602) is employed.
For one determination, 100 μl citrate blood or citrate plasma, respectively, are put into one activator tube and one reference tube each. In order to avoid evaporation, the tubes should be closed after dissolving (“Lösen”). Subsequently, the tubes are put into a shaker for 30-60 minutes. In order to terminate the reaction after shaking, 1000 μl stop reagent are added into each tube and carefully mixed with the pipette.
In both THROGA-samples (reference tube and activator tube) the anti-thrombin units (ATU) are now determined via ECA-H.
From the ATU determined in reference tube and activator tube, respectively, the thrombin units formed in the plasma or blood sample are calculated with the following formula: ETP=R−A • ETP maximal endogenic thrombin potential, thrombin units formed in 1 ml blood or plasma • R anti-thrombin units in the reference tube (ATU/ml blood or plasma) • A anti-thrombin units in the activator tube (ATU/ml blood or plasma) Generating a Reference Curve

Where [1] appears, read: patient two under falithrom, blood.
The mark [2] stands for this setting: patient two under falithrom, plasma.

Turning to `COC(=O)[C@H](c1ccccc1Cl)N1CCc2sccc2C1` [clopidogrel], where the note is “patient one, state after cerebral insult, after 8 weeks of clopidogrel, 1.5 tablets daily (112.5 mg), blood, norm 78±13 TU/ml, 99.5 prior to therapy”, the “ATU/ml; TU/ml (generated thrombin, THROGA-value), blood” value was 82.2 TU/ml. Besides, the “THROGA-values in all further controls” value (patient one, under clopidogrel therapy) is reported as “normal”. Besides, the “ATU/ml; TU/ml (generated thrombin, THROGA-value), plasma” value (patient one, after 8 weeks of clopidogrel, 1.5 tablets daily (112.5 mg), plasma, N: 122±19 TU/ml, 118.5 prior to therapy) turned out to be 116.9 TU/ml.

For `CCC(c1ccccc1)c1c(O)c2ccccc2oc1=O` (stereo not shown) [falithrom], under setting [1], the “% of the normal generable thrombin amount in the blood” value was 60% and the “generated thrombin in the blood” value was found to be 46.3 TU/ml. For the same compound, the bleeding tendency entry (patient two under falithrom, judged from the THROGA-value in blood) is reported as “no bleeding tendency can be observed”. Moreover, under setting [2], the “% of the normal plasma value” was 32% and the “generated thrombin in the plasma” value amounted to 39.3 TU/ml. The “Difference control (A) minus activated sample (B), blood” value (patient two, thrombophilia upon gammopathy, thrombosis prophylaxis with falithrom, blood, use of the kit) came out at 46.3 ATU/ml. Under “patient two, thrombosis prophylaxis with falithrom, plasma, use of the kit”, the “Difference control (A) minus activated sample (B), plasma” value is given as 39.3 ATU/ml.
